Assay results from ChEMBL document CHEMBL1154272, “Function-oriented biosynthesis of beta-lactone proteasome inhibitors in Salinispora tropica” (J Med Chem, 2009).

Assays:
[1] = Inhibition of chymotrypsin like activity of yeast 20S proteasome beta 5 subunit after 30 mins by fluorescence assay; set-up: species or system Saccharomyces cerevisiae
HCT-116 = experiment: Cytotoxicity against human HCT116 cells after 72 hrs by MTS/PMS assay; type: functional, cell-based; conditions: HCT-116, 72 h

| Structure (SMILES) | IC50 [1] [nM] | IC50 (HCT-116) [nM] |
| --- | --- | --- |
| C[C@@]12OC(=O)[C@]1([C@@H](O)C1CCCC1)NC(=O)[C@@H]2CCCl | 9.3 | 54 |
| C[C@@]12OC(=O)[C@]1([C@@H](O)C1CCCCC1)NC(=O)[C@@H]2CCCl | 27.5 | 176 |
| CC(C)[C@H](O)[C@@]12NC(=O)[C@H](CCCl)[C@]1(C)OC2=O [ANTIPROTEALIDE] | 101 | 777 |
| C[C@@]12OC(=O)[C@]1([C@@H](O)[C@@H]1C=CCCC1)NC(=O)[C@@H]2CCCl [MARIZOMIB] | 1.9 | 16 |
| C[C@@]12OC(=O)[C@]1([C@@H](O)C1CCC1)NC(=O)[C@@H]2CCCl [SALINOSPORAMIDE X3] | 93.4 | 188 |
| C[C@@]12OC(=O)[C@]1([C@@H](O)c1ccccc1)NC(=O)[C@@H]2CCCl [SALINOSPORAMIDE X4] | 1030 | 6880 |
| CCC[C@H](O)[C@@]12NC(=O)[C@H](CCCl)[C@]1(C)OC2=O [SALINOSPORAMIDE X5] | 245 | 1090 |
| CCCC[C@H](O)[C@@]12NC(=O)[C@H](CCCl)[C@]1(C)OC2=O [SALINOSPORAMIDE X6] | 132 | 1110 |
| C[C@@]12OC(=O)[C@]1([C@@H](O)[C@@H]1C=CCC1)NC(=O)[C@@H]2CCCl [SALINOSPORAMIDE X7] | 2.2 | 5.9 |
